According to patent US9829481B2, “Senescence tracers” (Eberhard Karls Universitaet Tuebingen Medizinische Fakultaet, priority 2012, dated 2017):

Columns and labels:
Type in all cases: cell-based
[1] = tested on: MCF7 cells (breast cancer cell line); test: Senescence β-galactosidase staining, light microscopy; conditions: 250 nM Doxorubicin for 24 hours
Procedure: FIG. 2: Light microscope pictures of β-gal-stained HCT116 and MCF7 cells with and with out 250 nM Doxorubicin treatment.
To stimulate HCT116 (colorectal carcinoma cell line) cells and MCF7 (breast cancer cell line) cells for senescence β-galactosidase staining, the cells were treated with 250nM Doxorubicin for 24 hours. Doxorubicin interacts with DNA by intercalation and inhibits the progression of the enzyme topoisonerase II.

[2] = tested on: MCF7 cells (breast cancer cell line); test: Lysosome staining with LysoTracker; conditions: presence vs absence of Doxorubicin
Description: (§1) FIG. 3: Graph of staining signals obtained for HCT116 and MCF7 cells stained with LysoTracker® both in the presence and absence of Doxorubicin.

[3] = tested on: HCT116 cells (colorectal carcinoma cell line); test: Lysosome staining with LysoTracker; conditions: presence vs absence of Doxorubicin
Description: as §1

[4] = tested on: MCF7 cells (breast cancer cell line); test: FACS analysis of labelling of senescent (Doxorubicin-treated) cells; conditions: with vs without 250 nM Doxorubicin, labeled with 40 ng/ml compound, 20 min, 37° C., 5% CO2
Procedure: (§2) FIG. 1: FACS-analysis data of the compound of Example 5 in HCT116 cells (colorectal carcinoma cell line) and MCF7 cells (breast cancer cell line) with and with out 250 nM Doxorubicin treatment.
(§3) MCF7 cells with (senescence +) and without 250 nM Doxorubicin treatment. The cells were incubated 20 min in 37° C. with 5% CO2.
(§4) To show the capability of the compounds of the invention to mark and visualise senescent cells, HCT116 cells (colorectal carcinoma cell line) and MCF7 cells (breast cancer cell line) were incubated 20 min at 37° C. with 5% CO2 in the presence and absence of Doxorubicin. The cells were then labeled with 40 ng/ml of the compound of Example 5.
(§5) To show the capability of the compounds of the invention to mark and visualise senescent cells, HCT116 cells (colorectal carcinoma cell line) and MCF7 cells (breast cancer cell line) were incubated 20 min in 37° C. with 5% CO2. The cells were then labeled with 40 ng/ml of the compound of Example 2.

[5] = tested on: HCT116 cells (colorectal carcinoma cell line); test: as above; conditions: with vs without 250 nM Doxorubicin, labeled with 40 ng/ml compound, 20 min, 37° C., 5% CO2
Procedure: as §2, §3, §4, §5

SMILES	β-gal expression (senescence staining) [1]	lysosome staining signal compared to untreated cells [2]	lysosome staining signal compared to untreated cells [3]	enrichment of the labeled compound in Doxorubicin-treated (senescent) cells (FACS) [4]	enrichment of the labeled compound in Doxorubicin-treated (senescent) cells (FACS) [5]
COc1cccc2c1C(=O)c1c(O)c3c(c(O)c1C2=O)C[C@@](O)(C(=O)CO)C[C@@H]3O[C@H]1C[C@H](N)[C@H](O)[C@H](C)O1 [Doxorubicin]	strong expression of β-gal	enhanced positive lysosome staining	enhanced positive lysosome staining	–	–
CCN(CC)c1ccc2nc3c4cc(OCCCS[C@H]5O[C@@H](C)[C@@H](O)[C@@H](O)[C@@H]5O)ccc4c(=O)cc-3oc2c1 [Example 5]	–	–	–	enhanced enrichment	–
CN(C)c1cccc2c(S(=O)(=O)NCCNc3ccnc4cc(Cl)ccc34)cccc12 [Example 2]	–	–	–	enhanced enrichment	enhanced enrichment
